Series [1] relates to sAPP Secretion in Rat-Derived Pheochromocytoma PC12h Cells. The experiment in a line: sAPP secretion promoting activity in PC12h cells (Western blotting of culture supernatant). Format: cell-based. To be noted: 3 hours after addition. As to the method:
Substrain PC12 h cells of rat-derived pheochromocytoma PC12 h cells (Brain Res., 222 (191), p. 225-233) were handed out by Professor Hiroshi Hatanaka of Osaka University. Dulbecco's modified Eagle's medium (DMEM) was purchased from Nissui Seiyaku K.K., HEPES (N-2-hydroxyethylpiperazine-N′-2-ethanesulfonic acid) buffer (pH 7.4), horse serum (HS) and a penicillin (5000 U/ml)/streptomycin (5 mg/ml) mixture from Gibco, and fetal calf serum (FCS) from BioWhittaker, Inc. A flask for incubation and a 6-well multi-well plate coated with collagen manufactured by Falcon Co., Ltd. and Iwaki Glass Co., Ltd., respectively, were used. Anti-βAPP 22C11 antibody was purchased from Roche Diagnostics, Inc. Other reagents used were special grade chemicals commercially available.
PC12h cells were grown in DMEM medium supplemented with 10% FCS/5% HS/penicillin-streptomycin, the cells were taken out by pipetting. The cells were inoculated on the collagen-coated 6-well plate to become 50-70% confluent, which was allowed to stand for a day. On the following day, the well was rinsed twice with 1 ml of […] HEPES/DMEM. […]
The culture supernatant was concentrated by ultrafiltration using Microcon 10 (Amicon, Inc.). […] ECL Plus (Amersham, Inc.) was used for detection, followed by digitalization in Fluor-S Max (Bio-Rad Laboratories) and quantification using NIH-image.

Series [2] concerns PC12h cells. In words: Prevention of glutamate-induced cell death (apoptosis) in PC12h cells, surviving cells by LDH activity. The series is classed as cell-based, rat. To be noted: 1 mM glutamate, 72 hours, mean of 3 wells. As to the method:
Substrain PC12h cells of rat-derived pheochromocytoma PC12 h cells were handed out by Professor Hiroshi Hatanaka of Osaka University. Dulbecco's modified Eagle's medium (DMEM) was purchased from Nissui Seiyaku K.K., HEPES (N-2-hydroxyethylpiperazine-N′-2-ethanesulfonic acid) buffer (pH 7.4), horse serum (HS) and a penicillin (5000 U/ml)/streptomycin (5 mg/ml) mixture from Gibco, fetal calf serum (FCS) from BioWhittaker, Inc., transferrin, insulin and progesterone from Sigma, Inc. A flask for incubation and a collagen-coated 96-well multi-well plate used were manufactured by Falcon Co., Ltd. and Iwaki Glass Co., Ltd., respectively. LDH cytotoxic test Wako was purchased from Wako Pure Chemical Industries, Ltd. Other reagents used were special grade chemicals commercially available.
PC12h cells were inoculated on the 96-well plate in 2×10^4 cells/cm^2. On the following day, the medium was exchanged with HEPES/DME medium containing […] and 20 nM progesterone. The cells survived 72 hours after were counted. The cell number was determined by solubilizing the cells survived in PBS containing Tween 20 after removal of the medium and assaying in terms of the LDH activity.
In PC12h cells, glutamate in the medium hampers uptake of cystine, or a material to make glutathione, into cells. Thus, when 1 mM or more glutamates are added to a medium and incubation is continued for 3 days or longer, it is known that PC12h cells become extinct due to apoptosis accompanied by a reduced level of glutathione in the cells.

A word on the melting point: it is the temperature, or range, at which the solid turns liquid.

`COc1ccc(C(=O)N2c3ccccc3[C@H](Nc3ccccc3)C[C@@H]2C)cc1OC` (relative stereo) [Compound 1-3, cis-1-(3,4-dimethoxybenzoyl)-2-methyl-N-phenyl-1,2,3,4-tetrahydro-4-quinolinamine]: in series [1] (3 μM of each compound, mean of 3 wells, anti-βAPP 22C11 Western blotting quantified with NIH Image), the “sAPP secretion level (relative value to the control group, when the control group is made 100)” value is reported as 325.14. The “sAPP level increase as compared to the control group” value in series [1] (3 μM, mean relative value in 3 wells (FIG. 2)) was 3.3 times. The “Surviving Rate (%)” value in series [2] (0.1 μM compound) is 4.89%; in series [2] (0.3 μM compound) it was 7.44%; in series [2] (1.0 μM compound), 49.17%; in series [2] (3.0 μM compound), 77.51%; in series [2] (10.0 μM compound), 63.24%. On to `COc1ccc(C(=O)N2CCC(Nc3cccc(Cl)c3)c3ccccc32)cc1OC` (centres unmarked) [Example 32, N-(3-Chlorophenyl)-1-(3,4-dimethoxybenzoyl)-1,2,3,4-tetrahydro-4-quinolinamine], for which the melting point came out at 160 °C. The same measure, in the same setting: as for `COc1ccc(C(=O)N2CCC(Nc3ccc(Br)cc3)c3ccccc32)cc1OC` (centres unmarked) [Example 34, N-(4-Bromophenyl)-1-(3,4-dimethoxybenzoyl)-1,2,3,4-tetrahydro-4-quinolinamine], the figure is 130 °C. Same read-out and setting: then `COc1ccc(C(=O)N2CCC(N(C)c3ccccc3Cl)c3ccccc32)cc1OC` (centres unmarked) [Example 35, N-(2-Chlorophenyl)-1-(3,4-dimethoxybenzoyl)-N-methyl-1,2,3,4-tetrahydro-4-quinolinamine], with 146 to 147 °C; and `COc1ccc(C(=O)N2CCC(N(C)c3ccc(Cl)cc3)c3ccccc32)cc1OC` (centres unmarked) [Example 36, N-(4-Chlorophenyl)-1-(3,4-dimethoxybenzoyl)-N-methyl-1,2,3,4-tetrahydro-4-quinolinamine], with 72 to 74 °C; and `COc1ccc(C(=O)N2CCC(N(C)c3ccc(Br)cc3)c3ccccc32)cc1OC` (centres unmarked) [Example 37, N-(4-Bromophenyl)-1-(3,4-dimethoxybenzoyl)-N-methyl-1,2,3,4-tetrahydro-4-quinolinamine], with 73 to 74 °C. Molecule `COc1ccc(C(=O)N2CCC(Nc3ccc(C)c(Cl)c3)c3ccccc32)cc1OC` (centres unmarked) [Example 38, N-(3-Chloro-4-methylphenyl)-1-(3,4-dimethoxybenzoyl)-1,2,3,4-tetrahydro-4-quinolinamine] came in with a melting point of 94 to 96 °C. As to `COc1ccc(C(=O)N2CCC(Nc3ccccc3Cl)c3cc(Cl)ccc32)cc1OC` (centres unmarked) [Example 39, 6-Chloro-N-(2-chlorophenyl)-1-(3,4-dimethoxybenzoyl)-1,2,3,4-tetrahydro-4-quinolinamine], the melting point fell in the range of 87 to 89 °C. Molecule `COc1ccc(C(=O)N2CCN(Cc3ccc(-c4ccccc4)cc3)c3ccccc32)cc1OC` [Example 42, 1-([1,1′-Biphenyl]-4-ylmethyl)-4-(3,4-dimethoxybenzoyl)-1,2,3,4-tetrahydroquinoxaline] yielded a melting point of 133 to 134 °C. On the same count and under the same terms, then `COc1ccc(C(=O)N2c3ccccc3C(Nc3ccc(Cl)cc3Cl)CC2C)cc1OC` (centres unmarked) [Example 43, N-(2,4-Dichlorophenyl)-1-(3,4-dimethoxybenzoyl)-2-methyl-1,2,3,4-tetrahydro-4-quinolinamine], with 165 to 167 °C; and `COc1ccc(C(=O)N2CCC(Nc3ccc(Cl)cc3)c3cc(Cl)ccc32)cc1OC` (centres unmarked) [Example 47, 6-Chloro-N-(4-chlorophenyl)-1-(3,4-dimethoxybenzoyl)-1,2,3,4-tetrahydro-4-quinolinamine], with 176 to 178 °C. Same read-out and setting: then `COc1ccc(C(=O)N2CCC(Nc3ccccc3)c3cc(Cl)ccc32)cc1OC` (centres unmarked) [Example 48, 6-Chloro-1-(3,4-dimethoxybenzoyl)-N-phenyl-1,2,3,4-tetrahydro-4-quinolinamine], with 188 to 189 °C. On the same count and under the same terms, as for `COc1ccc(C(=O)N2CCC(Nc3ccccc3)c3ccc(Cl)cc32)cc1OC` (centres unmarked) [Example 50, 7-Chloro-1-(3,4-dimethoxybenzoyl)-N-phenyl-1,2,3,4-tetrahydro-4-quinolinamine], the figure is 125 to 126 °C; as for `CCC1CC(N(C)c2ccccc2)c2ccccc2N1C(=O)c1ccc(OC)c(OC)c1` (centres unmarked) [Example 54, 1-(3,4-Dimethoxybenzoyl)-2-ethyl-N-methyl-N-phenyl-1,2,3,4-tetrahydro-4-quinolinamine], 146 to 148 °C.

Source of the values: patent US20030216398A1, “Soluble beta amyloid precursor protein secretion promoters” (priority 2002, published 2003).
